What was measured:
BTECs = assay: Heme content in BTECs; type: cell-based, human; settings: FLVCR1a knockdown vs scramble shRNA BTECs
Excerpt: (A) Frequency (%) of patient tumors with overexpression of FLVCR1 compared to their matched normal tissues across multiple cancer types. The number of patients showing tumor FLVCR1 overexpression relative to the total number of patients examined are indicated in the plot. Data derive from the BioXpress (Wan et al., 2015). […] Transcript abundance, normalized to beta-actin mRNA expression (for SHSY-5Y cells) or to 18s mRNA (for BTECs), is expressed as a fold increase over a calibrator sample. Data represent mean±SEM, n=4. For statistical analyses, an unpaired Student's t-test was used; ***p<0.001. (C, E) Western blot analysis of FLVCR1a expression in SHSY-5Y cells (C) and BTECs (E). […] Band intensities were measured by densitometry and normalized to vinculin expression. […] Values are expressed as pmol heme/mg protein. […] Values are expressed as pmol heme/mg protein. […]
Intracellular heme concentration was measured using a fluorescence assay, as previously reported (Sinclair et al., 2001). […] Fluorescence (wavelength: excitation 405 nm-emission 660-720 nm) of the resultant protoporphyrin was assessed on a Glomax Multi Detection System (Promega Corporation, Madison WI, USA).
The endogenous protoporphyrin content (measured in parallel unheated samples in oxalic acid) was subtracted. […] Results were expressed as relative fluorescence intensity or, alternatively, as pmol of heme/mg total protein.

C80 cells = assay: Activity of mitochondrial ETC complexes I-IV in C80 cells; type: cell-based, human; settings: FLVCR1a-silenced vs scramble shRNA C80 cells
Excerpt: (A, C, E) Activities of the mitochondrial electron transport chain complexes I-IV. FLVCR1a-silenced Caco2 (A), SKCO1 (C) or C80 cells (E) are compared to cells expressing a scramble shRNA. Results were expressed as nmol NAD^+/min/mg mitochondrial protein for complex I, nmol reduced cytochrome c/min/mg mitochondrial protein for complexes II-III, nmol oxidized cytochrome c/min/mg mitochondrial protein for complex IV. Data represent mean±SEM, n=3. For statistical analyses, an unpaired Student's t-test was used; *=p<0.05, **=p<0.01. (B, D, F) Mitochondrial ATP levels measured by a bioluminescent assay kit. FLVCR1a-silenced Caco2 (B), SKCO1 (D) or C80 cells (F) are compared to cells expressing a scramble shRNA. Results are expressed as nmol/mg mitochondrial proteins. Data represent mean±SEM, n=3. […] Results were expressed as nmol NAD^+/min/mg mitochondrial protein for complex I, nmol reduced cytochrome c/min/mg mitochondrial protein for complexes II-III, nmol oxidized cytochrome c/min/mg mitochondrial protein for complex IV. […] (H) Mitochondrial ATP levels measured by a bioluminescent assay kit in Caco2 cells overexpressing FLVCR1a (indicated as FLVCR1a+) compared to cells stably transduced with an empty vector. Results are expressed as nmol/mg mitochondrial proteins. […]
The activity of mitochondria respiration complexes was measured according to (Wibom et al., 2002).

FLVCR1a shRNA: shRNA specifically down-regulating FLVCR1a without targeting FLVCR1b; pLKO.1 lentiviral clone TRCN0000059599, antisense SEQ ID No.: 2 (antisense TTGCTAATGATGCTGTACTGG; sense CCAGTACAGCATCATTAGCAA)
heme levels at the steady state (BTECs): increased heme levels | ETC complexes activity (C80 cells): increased ETC complexes activity
